Where two headings read alike, the source gives them in different places.
Experiments:
[1] = system: Key Grass and Sedge Weeds as well as Grass Crops; assay: Post-emergent Test II herbicidal activity (Table 6); type: in vivo; settings: post-emergence, 336 h; for pest or weed control at 70 g/ha: application rate 70 g ai/ha; for pest or weed control at 140 g/ha: application rate 140 g ai/ha
How it was run: (§1)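 Test species were raised 7–21 d under greenhouse conditions until reaching the first or second true leaf, sprayed with formulated compound at 187 L/ha, and kept subirrigated to avoid wash-off. Fourteen days later, damage was rated visually on a 0–100% scale against untreated plants.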

[2] = system: Key Broadleaf Weed and Crop Species; assay: Post-emergent Test II herbicidal activity (Table 5); type: in vivo; settings: post-emergence, 336 h, post-emergent, 14 days after application; for pest or weed control at 70 g/ha: 70 g ai/ha; for pest or weed control at 140 g/ha: 140 g ai/ha
How it was run: as §1

[3] = Triticum aestivum, TRZSS (wheat), read-out: Visual Growth Reduction (%) 14 Days After Application, TRZSS
[4] = CYPES: yellow nutsedge (Cyperus esculentus), read-out: Visual Growth Reduction (%) 14 Days After Application, CYPES
[5] = DIGSA: crabgrass (Digitaria sanguinalis), read-out: Visual Growth Reduction (%) 14 Days After Application, DIGSA
[6] = ECHCG: barnyardgrass (Echinochloa crus-galli), read-out: Visual Growth Reduction (%) 14 Days After Application, ECHCG
[7] = ORYSA: rice (Oryza sativa), read-out: Visual Growth Reduction (%) 14 Days After Application, ORYSA
[8] = SETFA: giant foxtail (Setaria faberi), read-out: Visual Growth Reduction (%) 14 Days After Application, SETFA
[9] = SORVU: grain sorghum (Sorghum vulgare), read-out: Visual Growth Reduction (%) 14 Days After Application, SORVU
[10] = ZEAMX: maize, corn (Zea mays), read-out: Visual Growth Reduction (%) 14 Days After Application, ZEAMX
[11] = ABUTH: velvetleaf (Abutilon theophrasti), read-out: Visual Growth Reduction (%) 14 Days After Application ABUTH
[12] = AMARE: redroot pigweed (Amaranthus retroflexus), read-out: Visual Growth Reduction (%) 14 Days After Application AMARE
[13] = BRSNN: oilseed-rape, canola (Brassica napus), read-out: Visual Growth Reduction (%) 14 Days After Application BRSNN
[14] = CHEAL: lambsquarters (Chenopodium album), read-out: Visual Growth Reduction (%) 14 Days After Application CHEAL
[15] = EPHHL: wild poinsettia (Euphorbia heterophylla), read-out: Visual Growth Reduction (%) 14 Days After Application EPHHL
[16] = HELAN: sunflower (Helianthus annuus), read-out: Visual Growth Reduction (%) 14 Days After Application HELAN
[17] = VIOTR: wild pansy (Viola tricolor), read-out: Visual Growth Reduction (%) 14 Days After Application VIOTR

Row | SMILES | pest or weed control at 70 g/ha [1, 3] [%] | pest or weed control at 140 g/ha [1, 3] [%] | pest or weed control at 70 g/ha [1, 4] [%] | pest or weed control at 140 g/ha [1, 4] [%] | pest or weed control at 70 g/ha [1, 5] [%] | pest or weed control at 140 g/ha [1, 5] [%] | pest or weed control at 70 g/ha [1, 6] [%] | pest or weed control at 140 g/ha [1, 6] [%] | pest or weed control at 70 g/ha [1, 7] [%] | pest or weed control at 140 g/ha [1, 7] [%] | pest or weed control at 70 g/ha [1, 8] [%] | pest or weed control at 140 g/ha [1, 8] [%] | pest or weed control at 70 g/ha [1, 9] [%] | pest or weed control at 140 g/ha [1, 9] [%] | pest or weed control at 70 g/ha [1, 10] [%] | pest or weed control at 140 g/ha [1, 10] [%] | pest or weed control at 70 g/ha [2, 11] [%] | pest or weed control at 140 g/ha [2, 11] [%] | pest or weed control at 70 g/ha [2, 12] [%] | pest or weed control at 140 g/ha [2, 12] [%] | further results
1 | Nc1c(Cl)c(C(=O)O)nc(-c2ccc(Br)c(F)c2)c1Cl [Compound 43, 4-Amino-6-(4-bromo-3-fluorophenyl)-3,5-dichloropicolinic acid] | 60 to 74 | 60 to 74 | 95 to 100 | 95 to 100 | 75 to 84 | 75 to 84 | 75 to 84 | 60 to 74 | 0 to 29 | 30 to 44 | 60 to 74 | 60 to 74 | 95 to 100 | 95 to 100 | 75 to 84 | 75 to 84 | 85 to 94 | 85 to 94 | 95 to 100 | 95 to 100 | pest or weed control at 70 g/ha [2, 13]: 95 to 100%; pest or weed control at 140 g/ha [2, 13]: 95 to 100%; pest or weed control at 70 g/ha [2, 14]: 75 to 84%; pest or weed control at 140 g/ha [2, 14]: 75 to 84%; pest or weed control at 70 g/ha [2, 15]: 60 to 74%; pest or weed control at 140 g/ha [2, 15]: 60 to 74%; pest or weed control at 70 g/ha [2, 16]: 95 to 100%; pest or weed control at 140 g/ha [2, 16]: 95 to 100%; pest or weed control at 70 g/ha [2, 17]: 95 to 100%; pest or weed control at 140 g/ha [2, 17]: 95 to 100%
2 | COc1c(N)nc(-c2ccc(I)c(F)c2)nc1C(=O)O [Compound 37, 6-Amino-2-(3-fluoro-4-iodophenyl)-5-methoxypyrimidine-4-carboxylic acid] | 45 to 59 | 60 to 74 | 0 to 29 | 0 to 29 | 45 to 59 | 60 to 74 | 75 to 84 | 75 to 84 | 0 to 29 | 0 to 29 | 0 to 29 | 60 to 74 | 75 to 84 | 85 to 94 | 0 to 29 | 45 to 59 | 45 to 59 | 60 to 74 | 85 to 94 | 85 to 94 | pest or weed control at 70 g/ha [2, 13]: 95 to 100%; pest or weed control at 140 g/ha [2, 13]: 95 to 100%; pest or weed control at 70 g/ha [2, 14]: 95 to 100%; pest or weed control at 140 g/ha [2, 14]: 95 to 100%; pest or weed control at 70 g/ha [2, 15]: 95 to 100%; pest or weed control at 140 g/ha [2, 15]: 95 to 100%; pest or weed control at 70 g/ha [2, 16]: 85 to 94%; pest or weed control at 140 g/ha [2, 16]: 85 to 94%; pest or weed control at 70 g/ha [2, 17]: 95 to 100%; pest or weed control at 140 g/ha [2, 17]: 95 to 100%
3 | C=Cc1c(C(=O)O)nc(-c2ccc(C#N)cc2)c(F)c1N [Compound 150] | 30 to 44 | 45 to 59 | 0 to 29 | 45 to 59 | 0 to 29 | 0 to 29 | 0 to 29 | 0 to 29 | 0 to 29 | 0 to 29 | 0 to 29 | 60 to 74 | 45 to 59 | 45 to 59 | 45 to 59 | 60 to 74 | 45 to 59 | 60 to 74 | 95 to 100 | 95 to 100 | pest or weed control at 70 g/ha [2, 13]: 45 to 59%; pest or weed control at 140 g/ha [2, 13]: 60 to 74%; pest or weed control at 70 g/ha [2, 14]: 85 to 94%; pest or weed control at 140 g/ha [2, 14]: 85 to 94%; pest or weed control at 70 g/ha [2, 15]: 95 to 100%; pest or weed control at 140 g/ha [2, 15]: 95 to 100%; pest or weed control at 70 g/ha [2, 16]: 95 to 100%; pest or weed control at 140 g/ha [2, 16]: 95 to 100%; pest or weed control at 70 g/ha [2, 17]: 0 to 29%; pest or weed control at 140 g/ha [2, 17]: 0 to 29%

— US9113629B2, “4-amino-6-(4-substituted-phenyl)-picolinates and 6-amino-2-(4-substituted-phenyl)-pyrimidine-4-carboxylates and their use as herbicides” (DOW AGROSCIENCES LLC, priority 2013, dated 2015)
